Legend:
Assay type in all cases: cell-based, human
[1] = system: NCI-H460 (Non Small Cell Lung); assay: 3-cell line, one dose primary anticancer assay (NCI); details: 1.000E−04 Molar, 48 hours, percent of growth vs untreated control cells; negative numbers indicate cell kill
Protocol: (§1) The following cell culture tests were performed by the National Cancer Institute of the National Institute of Health. The compounds listed below have been evaluated in the 3-cell line, one dose primary anticancer assay. The compounds which pass our criteria for activity in this assay will be scheduled automatically for evaluation against the full panel of 60 tumor cell lines. For the past 10 years, the Development Therapeutic Program (DTP), Division of Cancer Treatment and Diagnosis (DCTD), National Cancer Institute (NCI) has used an in vitro model consisting of 60 human tumor cell lines as the primary anticancer screen [Ref: J. Natl, Cancer Inst., 83:757-766, 1991].
(§2) 95% of the actives from the 60 cell line screen can be identified using only three cell lines. For this reason, the DTP has now begun using, as its primary anticancer assay, a 3-cell line panel consisting of the MCF7 (Breast), NCI-H460 (Lung), and SF-268 (CNS). This 3-cell line, one-dose assay has been in use by DTP for several years for the evaluation of combinatorial libraries and has proven to be an effective pre-screen.
(§3) In the current protocol, each cell line is inoculated and preincubated on a microtiter plate. Test agents are then added at a single concentration and the culture incubated for 48 hours. End-point determinations are made with alamar blue (Biotechniques 21(5) 780-782 (1996)). Results for each test agent are reported as the percent of growth of the treated cells when compared to the untreated control cells. Compounds which reduce the growth of any one of the cell lines to approximately 32% or less (negative numbers indicate cell kill) are passed on for evaluation in the full panel of 60 cell lines over a 5-log dose range.

SF-268 (CNS) = assay: as above; details: 1.000E−04 Molar, 48 hours, percent of growth vs untreated control cells; negative numbers indicate cell kill
Protocol: as §1, §2, §3

MCF7 (Breast) = assay: as above; details: 1.000E−04 Molar, 48 hours, percent of growth vs untreated control cells; negative numbers indicate cell kill
Protocol: as §1, §2, §3

PC-3 (prostate cancer) = assay: 60 cell-line tests
Protocol: as §1, §3

[2] = system: NCI-H522 (non-samll cell lung cancer); assay: 60 cell-line tests
Protocol: as §1, §3

HCT (colon cancer) = assay: 60 cell-line tests
Protocol: as §1, §3

[3] = system: CCRF-CEM (and other leukemia cancer cells); assay: 60 cell-line tests
Protocol: as §1, §3

Delta cancer cell lines = assay: 60 cell-line tests
Protocol: as §1, §3

CAKI-1 (renal cancer) = assay: 60 cell-line tests
Protocol: as §1, §3

SF-539 (CNS cancer) = assay: 60 cell-line tests; details: even at 1.000E-08 molar concentration
Protocol: as §1, §3

other cell lines = assay: 60 cell-line tests; details: other cell lines of the 60 cell-line panel
Protocol: as §1, §3

[4] = system: EKVX (non-small cell lung cancer); assay: 60 cell-line tests; details: even at 1.000E-08 molar concentration
Protocol: as §1, §3

DU-145 (prostate cancer) = assay: 60 cell-line tests; details: even at 1.000E-08 molar concentration
Protocol: as §1, §3

[5] = system: MDA-MB-435 (breast cancer); assay: 60 cell-line tests; details: even at 1.000E-08 molar concentration
Protocol: as §1, §3

Molecule	Growth Percentage (Non Small Cell Lung) NCI-H460 [1] [%]	Growth Percentage (CNS) SF-268 (SF-268 (CNS)) [%]	Growth Percentage (Breast) MCF7 (MCF7 (Breast)) [%]	selectivity for cancer cells (PC-3 (prostate cancer))	selectivity for cancer cells [2]	selectivity for cancer cells (HCT (colon cancer))	selectivity for cancer cells [3]	selectivity for cancer cells (Delta cancer cell lines; Delta cancer)	selectivity for cancer cells (CAKI-1 (renal cancer))	killing of cancer cells (SF-539 (CNS cancer))	effect against other cell lines (other cell lines)	killing of cancer cells (PC-3 (prostate cancer); even at 1.000E-08 molar concentration)	killing of cancer cells [4]	killing of cancer cells (DU-145 (prostate cancer))	killing of cancer cells [5]	killing of cancer cells (Delta cancer cell lines; Delta cancer cell lines, even at 1.000E-08 molar concentration)
OCCCCC1Nc2ccc(O)cc2C2OCCCC12 (stereo not shown) [5-1, 3,4,4a,5,6,10b-hexahydro-5-(4-hydroxybutyl)-9-hydroxy-2H-pyrano[3,2-c]quinoline]	29	2	0	highly selective	moderately selective	moderately selective	moderately selective	highly selective	moderately selective	–	–	–	–	–	–	–
6,6a,7,8-tetrahydro-7-(2-o-hydroxyphenyl)ethyl-2H-benzopyrano[3,2-a]quinoline [4-1]	0	0	0	–	–	–	–	–	–	–	–	–	–	–	–	–
OCCCCC1Nc2ccc(Nc3ccccc3)cc2C2OCCCC12 (stereo not shown) [3-1, 3,4,4a,5,6,10b-hexahydro-5-(4-hydroxybutyl)-9-phenylamino-2H-pyrano[3,2-c]quinoline]	−1	−1	−1	–	–	–	–	–	–	highly potent and selectively killed	very week effect	highly potent and selectively killed	highly potent and selectively killed	highly potent and selectively killed	highly potent and selectively killed	highly potent and selectively killed
OCCCC1Nc2ccc(Nc3ccccc3)cc2C2OCCC12 (stereo not shown) [3-2, 2,3,3a,4,5,9b-hexahydro-4-(3-hydroxypropyl)-8-phenylamino-furano[3,2-c]quinoline]	57	22	0	–	–	–	–	–	–	–	–	–	–	–	–	–
CN(C)c1ccc2c(c1)C1OCCC1C(CCCO)N2 (stereo not shown) [3-3, 2,3,3a,4,5,9b-hexahydro-4-(3-hydroxypropyl)-8-dimethylamino-furano[3,2-c]quinoline]	100	77	7	–	–	–	–	–	–	–	–	–	–	–	–	–
